Laboratory results from patent US10308658B2, “Salt of EGFR inhibitor, crystalline form and uses thereof” (SUNSHINE LAKE PHARMA CO., LTD., priority 2015, dated 2019).

Legend:
EGFR = EGFR (Homo sapiens, UniProt P00533); details: as disclosed in CN 103102344 A; cited from earlier work
[1] = Pharmacokinetic assay in beagle dogs; type: in vivo; details: for AUC(0-inf) / AUC(0-t) / Cmax / Tmax / half-life: dog, in vivo, oral, capsule, 5 mg/kg as compound of Formula (II)
Protocol: The pharmacokinetic properties of the compound of Formula (II) and crystalline form I of the invention were assessed in beagle dogs: each group having 3 beagle dogs was administered by oral in a capsule form. The dosage amount of crystalline form I was converted and determined according to the compound of Formula (II) at a dosage of 5 mg/kg.

[2] = Accelerated test (40±2° C./75%±5% RH, six months); type: physicochemical; details: for Impurities (total impurities, %) / Moisture (%): 40±2° C./75%±5% RH
Protocol: (§1) The purity of the compound used in the stability test or accelerated test is measured by Aglient 1200 high performance liquid chromatography with VWD detector. The chromatographic column model is ZORBAX Extend-C18 (4.6×150 mm, […]), the detection wavelength is 250 nm, the flow rate is 1.0 mL/min, the column temperature is 40° C., and the mobile phase is 10 mM KH2PO4 (pH=7.5)-acetonitrile (v/v=55/45).
According to “Guidelines for the stability test of raw materials and preparations” (Chinese Pharmacopoeia, 2015, 4th edition, general rules 9001), the accelerated test of crystalline form I was practiced as follows:
Medicinal low density polyethylene bag (the size was 140*120*0.104 mm^3, the manufacture was Tianjin Litian Medicine Packing Material Co., Ltd, and the batch number was 121238.) was used as inner package material, and the bag was sealed by nylon cable ties; and paper tube was used as a packaging material. The packaged samples were placed in a constant temperature and humidity test chamber (40±2° C./75%±5% RH) for six months for accelerated test. Sampling at the end of 1, 2, 3 or 6 months for testing the moisture content of the sample by using karl fischer titration, the content of impurities was measured by HPLC.

[3] = Stability test (high temperature, high humidity, illumination); type: physicochemical
Protocol: as §1
According to “Guidelines for the stability test of raw materials and preparations” (Chinese Pharmacopoeia, 2015, 4th edition, general rules 9001), the stability of crystalline form I was tested as follows:
Appropriate amount of sample was taken into the flat weighing bottle to form a thin layer of no more than 5 mm thick. […] The content of impurities was tested by HPLC.

[4] = Hygroscopic test (Chinese Pharmacopoeia 2010, appendix XIX J); type: physicochemical; details: 25° C.±1° C., relative humidity 80%±2%, 24 h; for Hygroscopic weight gain: dimethanesulfonate monohydrate
Source text: 1. Instruments: one hundred thousandth electronic balance, type: XP205DR, manufacturer: Mettler.
2. Test method deriving from Chinese Pharmacopoeia 2010, appendix XIX J: Guideline on pharmaceutical hygroscopic test. Specific method is described as follows:
1) Placing a dried glass-stoppered, weighing bottle (outer diameter: 50 mm, height: 15 mm) in a thermostatic drier with saturated aqueous ammonium chloride or ammonium sulfate solution in the bottom at the previous day of the test maintaining the temperature at 25° C.±1° C., and the glass-stoppered, weighing bottle was weighed precisely.
2) Taking and weighing an appropriate amount of the sample (m1), and placing the sample into the weighing bottle with thickness of about 1 mm.
3) Opening the weighing bottle, and placing the glass stopper with the opened weighing bottle in a constant temperature and humidity condition for 24 h.
4) Sealing the weighing bottle with glass stopper, and the weighing bottle sealed with glass stopper was weighed precisely (m2). The percentage (%) of weight gain was calculated. Percentage (%) of weight gain=(m2−m1−m0)/m1×100%
5) The hygroscopic features and definition of hygroscopic weight gain are summarized in table 3 (deriving from Chinese Pharmacopoeia 2010, appendix XIX J: Guideline on pharmaceutical hygroscopic test, test conditions: 25° C.±1° C., Relative Humidity 80%±2%).

[5] = oral capsule, individual data analysis

EGFR, sequence (P00533 25-1210, species assumed): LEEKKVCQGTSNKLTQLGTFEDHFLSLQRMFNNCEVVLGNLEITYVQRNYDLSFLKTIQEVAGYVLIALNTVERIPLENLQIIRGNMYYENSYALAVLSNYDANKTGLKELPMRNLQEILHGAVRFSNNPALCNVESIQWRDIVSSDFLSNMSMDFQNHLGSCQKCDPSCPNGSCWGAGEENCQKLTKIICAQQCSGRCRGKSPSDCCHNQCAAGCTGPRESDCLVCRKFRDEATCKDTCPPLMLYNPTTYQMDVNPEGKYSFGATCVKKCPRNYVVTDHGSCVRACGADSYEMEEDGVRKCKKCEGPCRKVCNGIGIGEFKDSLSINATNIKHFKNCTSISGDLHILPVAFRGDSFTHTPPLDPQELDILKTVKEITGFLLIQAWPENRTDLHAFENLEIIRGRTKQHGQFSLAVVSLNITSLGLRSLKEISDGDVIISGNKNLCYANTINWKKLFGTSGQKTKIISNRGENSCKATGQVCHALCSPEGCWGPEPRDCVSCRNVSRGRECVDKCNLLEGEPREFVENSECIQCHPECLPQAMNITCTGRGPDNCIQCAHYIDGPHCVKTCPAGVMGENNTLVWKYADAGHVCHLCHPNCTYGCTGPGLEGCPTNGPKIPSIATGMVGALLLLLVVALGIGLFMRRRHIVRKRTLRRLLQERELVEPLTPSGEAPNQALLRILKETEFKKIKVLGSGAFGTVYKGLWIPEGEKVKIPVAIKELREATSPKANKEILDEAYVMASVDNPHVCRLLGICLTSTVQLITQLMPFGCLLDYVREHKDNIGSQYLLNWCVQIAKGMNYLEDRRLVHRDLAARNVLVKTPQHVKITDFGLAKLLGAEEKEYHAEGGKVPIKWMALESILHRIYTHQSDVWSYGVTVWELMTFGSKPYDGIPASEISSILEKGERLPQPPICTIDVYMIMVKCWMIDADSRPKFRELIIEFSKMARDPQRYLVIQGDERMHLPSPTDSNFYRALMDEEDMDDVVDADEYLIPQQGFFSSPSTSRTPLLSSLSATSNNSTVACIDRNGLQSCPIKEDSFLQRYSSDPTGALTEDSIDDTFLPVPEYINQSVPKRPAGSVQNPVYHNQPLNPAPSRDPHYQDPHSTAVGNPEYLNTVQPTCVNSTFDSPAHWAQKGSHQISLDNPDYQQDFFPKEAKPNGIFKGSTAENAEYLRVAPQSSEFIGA

Structure (SMILES): COc1cc2ncnc(Nc3ccc(F)c(Cl)c3)c2cc1OCCCN1C[C@@H]2OCCO[C@@H]2C1 [Compound of Formula (II), 4-[(3-chloro-4-fluorophenyl)amino]-7-methoxy-6-[3-[(1R,6S)-2,5-dioxa-8-azabicyclo [4.3.0]nonan-8-yl]propoxy]quinazoline]
- inhibition activity against EGFR (EGFR): high inhibition activity
- AUC(0-inf) [1]: 886 ng·h/mL
- AUC(0-t) [1]: 825 ng·h/mL
- Cmax [1]: 125 ng/mL
- Tmax [1]: 1.67 h
- half-life [1]: 3.62 h

Structure (SMILES): COc1cc2ncnc(Nc3ccc(F)c(Cl)c3)c2cc1OCCCN1C[C@@H]2OCCO[C@@H]2C1.CS(=O)(=O)O.CS(=O)(=O)O.O [Crystalline form I, 4-[(3-chloro-4-fluorophenyl)amino]-7-methoxy-6-[3-[(1R,6S)-2,5-dioxa-8-azabicyclo[4.3.0]nonan-8-yl]propoxy]quinazoline dimethanesulfonate monohydrate]
- AUC(0-inf) [1]: 1470 ng·h/mL
- AUC(0-t) [1]: 1450 ng·h/mL
- Cmax [1]: 231 ng/mL
- Tmax [1]: 1.33 h
- half-life [1]: 3.65 h
- Tmax time compared with compound of Formula (II) ([1]; oral capsule): earlier than compound of Formula (II)
- absorption compared with compound of Formula (II) [1, 5]: faster absorption
- exposure level compared with compound of Formula (II) [1, 5]: higher exposure level
- Impurities (total impurities, %) ([2]; 0 day): 0.18%
- Moisture (%) ([2]; 0 day): 2.79%
- Impurities (total impurities, %) ([2]; One month): 0.18%
- Moisture (%) ([2]; One month): 2.92%
- Impurities (total impurities, %) ([2]; Six months): 0.17%
- Moisture (%) ([2]; Six months): 2.86%
- Impurities (total impurities, %) ([2]; Three months): 0.18%
- Moisture (%) ([2]; Three months): 3.09%
- Impurities (total impurities, %) ([2]; Two months): 0.17%
- Moisture (%) ([2]; Two months): 2.87%
- quality (stability) ([2]; accelerated test condition for six months, low density polyethylene bag as inner package): stable
- Impurities (total impurities, %) ([3]; 0 day): 0.13%
- Impurities (total impurities, %) ([3]; High humidity 25° C. ± 2° C./92.5% RH, 5 days): 0.14%
- Impurities (total impurities, %) ([3]; High humidity 25° C. ± 2° C./92.5% RH, 10 days): 0.16%
- Impurities (total impurities, %) ([3]; High temperature 60° C. ± 2° C., 5 days): 0.12%
- Impurities (total impurities, %) ([3]; High temperature 60° C. ± 2° C., 10 days): 0.14%
- Impurities (total impurities, %) ([3]; Illumination 4500 ± 500 lx, 5 days): 0.13%
- Impurities (total impurities, %) ([3]; Illumination 4500 ± 500 lx, 10 days): 0.13%
- Impurities (total impurities, %) ([3]; Illumination 4500 ± 500 lx, 15 days): 0.14%
- change of impurity ([3]; high temperature 10 days, high humidity 10 days, illumination 15 days): no obvious change
- quality (stability) ([3]; high temperature, high humidity or illumination condition): stable
- Hygroscopic feature [4]: almost no hygroscopicity
- Hygroscopic weight gain [4]: 0.074%
- Hygroscopic weight gain ([4]; listed as crystalline form I): 0.074%
